Six compounds from paper PMC4102551, “Screening and Characterisation of Antimicrobial Properties of Semisynthetic Betulin Derivatives” (PLoS ONE, 2014) can be followed below.

One data set relates to S. aureus ATCC 25923. In words: Broth microdilution assay, S. aureus. It counts as cell-based, Staphylococcus aureus. The settings on record: 50 µM, 24 h, inhibition of growth, mean ± SD. The protocol: (§1) Clinically used antimicrobial agents were selected based on international guidelines for antimicrobial testing and were utilised as reference compounds in the antimicrobial assays. The compounds were purchased from Sigma, Fluka and ICN Biomedicals. Stock solutions of the reference compounds were prepared either in double distilled sterile MilliQ water or in DMSO. Water solutions were sterilised through a 0.22 µm filter (VWR International). […] During the primary screening, these reference compounds were used as positive controls at the determined MIC on every plate.
(§2) Gram-negative strains Escherichia coli (ATCC 25922), Enterobacter aerogenes (ATCC 13048) and Pseudomonas aeruginosa (ATCC 27853), Gram-positive strains Staphylococcus aureus (ATCC 25923) and Enterococcus faecalis (ATCC 29212), and fungal strain Candida albicans (ATCC 90028) were obtained from Microbiologics Inc., and used for the antimicrobial screening. Strains were selected according to the guidelines set for clinical laboratories by Clinical and Laboratory Standards Institute [CLSI, formerly National Committee on Clinical Laboratory Standards [22]] and the European Committee on Antimicrobial Susceptibility Testing (EUCAST). Bacterial strains were grown on Mueller Hinton II Agar (MHA) (BBL, BD) and Mueller Hinton II broth (MHB) (BBL, BD), whereas Candida was initiated on Sabouraud Dextrose Agar (SDA) (Difco, BD) plates. Media were prepared into MilliQ water according to manufacturer’s instruction and autoclaved at 121°C for 15 min. Bacteria were plated on MHA plates and incubated at 37°C for 16–18 h. Bacterial suspension for the assays was prepared by subculturing the bacteria into MHB and by incubating at 37°C for 16–20 h at 110 rpm prior to the assay. Candida strain was grown on SDA plates at 27°C for 16–18 h and suspended into sterile 0.9% saline for the assay.
(§3) Antimicrobial screening assays were performed by broth microdilution method following the guidelines of CLSI and EUCAST. Bacterial suspensions were prepared as mentioned earlier and diluted with MHB to obtain a final inoculum of 5×10^5 colony-forming units (cfu)/mL in the assay for all the bacteria (based on OD620 values previously calibrated against plate counts). Candida suspension was prepared into sterile 0.9% saline solution as stated earlier. […] Assays were carried out in clear 96-well microtitre plates and initiated by dispensing an equal volume of microbial suspension and sample solution diluted into the assay medium into the wells. The plates were incubated for 24 h at 37°C (for Candida the incubation was at 35°C for 48 h) with agitation. Absorbance was measured at 620 nm with Victor plate reader (Wallac 1420, Perkin Elmer) at 0, 4 and 24 h with the bacteria, and at 0, 24 and 48 h with Candida. The antimicrobial activity of the samples was calculated from the absorbance values by comparing to the controls, and expressed as a percentage inhibition of growth. All the betulin derivatives were first assayed at the single concentration of 50 µM (two separate experiments, each with three replicates). […] The MIC90 value was expressed as the lowest concentration of compound that inhibited the microbial growth by >90%. The MIC90 results are means of three replicates from two separate experiments.
(Dilution methods test growth across graded concentrations, often in twofold steps.)

The subject of a further data set is E. coli ATCC 25922. In words: Broth microdilution assay, E. coli. In kind it is cell-based, Escherichia coli. The settings on record: 50 µM, 24 h, inhibition of growth, mean ± SD. The protocol: as §1, §2, §3
In a further data set the test system is P. aeruginosa ATCC 27853. Kind of data set: Broth microdilution assay, P. aeruginosa. In kind it is cell-based, Pseudomonas aeruginosa. As to conditions: 50 µM, 24 h, inhibition of growth, mean ± SD. The protocol: as §1, §2, §3
In a further data set the test system is Huh-7 cells. In words: in vitro. As to conditions: 50 µM, 24 h exposure, ATP content, 5% FBS. It counts as cell-based, human. How it is done: Huh-7 cells (derived from human hepatocellular carcinoma) were obtained as a gift from Prof. Ralf Bartenschlager (University of Heidelberg, Germany) and used for assessing the cytotoxicity against mammalian cells. HL cells (a heteroploid cell line used for propagating respiratory viruses) were used as a host cell line in the host-pathogen co-culture assay. […] Both cell lines were cultured at 37°C, 5% CO2 and 95% humidity.
The effect of the betulin derivatives on metabolic activity of Huh-7 cells was evaluated by measuring the intracellular ATP content of the cells after 24 h exposure to the compounds. In brief, cells were seeded at 20000 cells/well on white-walled microplates (PerkinElmer) and incubated at 37°C, 5% CO2 and 95% humidity. After culturing the cells overnight, the medium was replaced with the assay media (5% FBS) containing the sample and the cells were incubated for 24 h. Polymyxin B sulphate (15000 IU/mL) was used as a positive control. Following the incubation period, Promega’s CellTiter-Glo Cell Viability Assay was used to determine the intracellular ATP levels according to the manufacturer’s instructions. Cells were washed with 100 µL 6.7 mM PBS, pH 7.4 and 50 µL of fresh assay media and 50 µL of the CellTiter-Glo reagent were added into the wells. After 2 min shaking, followed by 10 min incubation at RT, luminometric signal was measured using Varioskan Flash plate reader (Thermo Fisher Scientific).

The subject of a further data set is E. aerogenes ATCC 13048. In words: Broth microdilution assay, E. aerogenes. It counts as cell-based, Enterobacter aerogenes. The settings on record: 50 µM, 24 h, inhibition of growth, mean ± SD. How it is done:
as §1, §2, §3

The next data set concerns C. albicans ATCC 90028. In words: Broth microdilution assay, C. albicans. In kind it is cell-based, Candida albicans. The settings on record: 50 µM, 48 h at 35°C, inhibition of growth, mean ± SD. The protocol:
as §1, §2, §3

The subject of a further data set is E. faecalis ATCC 29212. Kind of data set: Broth microdilution assay, E. faecalis. It counts as cell-based, Enterococcus faecalis. The settings on record: 50 µM, 24 h, inhibition of growth, mean ± SD. How it is done:
as §1, §2, §3

As to `CCCCn1c(=O)n2n(c1=O)C1(C(C)C)CCC3(COC(C)=O)CCC4(C)C(=C31)C2CC1C2(C)CCC(OC(C)=O)C(C)(C)C2CCC14C` (stereo not drawn) [Compound 42], the “Inhibitory effect (%) S. aureus ATCC 25923” value in the data set on S. aureus ATCC 25923 is reported as 1.5±1.0%. Also, the “Inhibitory effect (%) E. coli ATCC 25922” value in the data set on E. coli ATCC 25922 is listed as 1.7±5.2%. Besides, in the data set with P. aeruginosa ATCC 27853, the “Inhibitory effect (%) P. aeruginosa ATCC 27853” value is on record as 1.0±0.4%. Besides, in the data set with Huh-7 cells, the “Cytotoxicity (%) Huh-7 cells” value was -8.3±1.3%. In addition, the “Inhibitory effect (%) E. aerogenes ATCC 13048” value in the data set on E. aerogenes ATCC 13048 came out at 10.6±3.5%. Moreover, the “Inhibitory effect (%) C. albicans ATCC 90028” value in the data set with C. albicans ATCC 90028 is on record as -12.0±11.8%. For the same compound, in the data set with E. faecalis ATCC 29212, the “Inhibitory effect (%) E. faecalis ATCC 29212” value is listed as 67.5±3.7%.
In the case of `CC(C)C(=O)OCC12CCC3(C(C)C)C1=C1C(CC4C5(C)CCC(OC(=O)C(C)C)C(C)(C)C5CCC4(C)C1(C)CC2)n1c(=O)n(C)c(=O)n13` (stereo not drawn) [Compound 47], in the data set with S. aureus ATCC 25923, the “Inhibitory effect (%) S. aureus ATCC 25923” value is 2.9±1.0%. For the same compound, in the data set with E. coli ATCC 25922, the “Inhibitory effect (%) E. coli ATCC 25922” value was -3.8±4.2%. Also, the “Inhibitory effect (%) P. aeruginosa ATCC 27853” value in the data set with P. aeruginosa ATCC 27853 is 1.4±0.8%. Further, the “Cytotoxicity (%) Huh-7 cells” value in the data set with Huh-7 cells is given as -4.9±2.2%. Further, in the data set with E. aerogenes ATCC 13048, the “Inhibitory effect (%) E. aerogenes ATCC 13048” value turned out to be 9.6±1.7%. Also, in the data set with C. albicans ATCC 90028, the “Inhibitory effect (%) C. albicans ATCC 90028” value is reported as 12.0±12.7%. Moreover, the “Inhibitory effect (%) E. faecalis ATCC 29212” value with E. faecalis ATCC 29212 was determined as 47.8±1.3%.
Consider `C=C(C)[C@@H]1CC[C@]2(COC(=O)c3cccnc3)CC[C@]3(C)[C@H](CC[C@@H]4[C@@]5(C)CC[C@H](O)C(C)(C)[C@@H]5CC[C@]43C)[C@@H]12` [Compound 6, 28-O-nicotinoylbetulin], for which the “Inhibitory effect (%) S. aureus ATCC 25923” value in the data set on S. aureus ATCC 25923 is recorded as -17.7±2.0%. The “Inhibitory effect (%) E. coli ATCC 25922” value with E. coli ATCC 25922 is reported as -0.6±6.8%. Moreover, in the data set on P. aeruginosa ATCC 27853, the “Inhibitory effect (%) P. aeruginosa ATCC 27853” value was determined as 2.2±2.2%. In addition, the “Cytotoxicity (%) Huh-7 cells” value in the data set on Huh-7 cells is given as -0.4±3.4%. Besides, the “Inhibitory effect (%) E. aerogenes ATCC 13048” value with E. aerogenes ATCC 13048 came to 7.5±1.3%. Further, in the data set with C. albicans ATCC 90028, the “Inhibitory effect (%) C. albicans ATCC 90028” value is recorded as 36.7±7.6%. In addition, in the data set with E. faecalis ATCC 29212, the “Inhibitory effect (%) E. faecalis ATCC 29212” value came out at 60.1±4.0%.
Consider `CC(=O)OCC12CCC3(C(C)C)C1=C1C(CC4C5(C)CCC(OC(C)=O)C(C)(C)C5CCC4(C)C1(C)CC2)n1c(=O)n(-c2ccc4c(c2)CCC4)c(=O)n13` (stereo not drawn) [Compound 36], for which the “Inhibitory effect (%) S. aureus ATCC 25923” value in the data set with S. aureus ATCC 25923 is reported as 6.1±1.7%. Also, the “Inhibitory effect (%) E. coli ATCC 25922” value in the data set with E. coli ATCC 25922 amounted to 2.6±2.1%. For the same compound, the “Inhibitory effect (%) P. aeruginosa ATCC 27853” value in the data set with P. aeruginosa ATCC 27853 was found to be 5.8±0.7%. In addition, the “Cytotoxicity (%) Huh-7 cells” value in the data set with Huh-7 cells turned out to be 7.9±2.2%. Moreover, the “Inhibitory effect (%) E. aerogenes ATCC 13048” value in the data set with E. aerogenes ATCC 13048 was 14.5±1.3%. In the data set on C. albicans ATCC 90028, the “Inhibitory effect (%) C. albicans ATCC 90028” value amounted to 10.7±4.8%. Moreover, in the data set on E. faecalis ATCC 29212, the “Inhibitory effect (%) E. faecalis ATCC 29212” value came out at 62.0±1.9%.
As to `CC(=O)OCC12CCC3(C(C)C)C1=C1C(CC4C5(C)CCC(OC(C)=O)C(C)(C)C5CCC4(C)C1(C)CC2)n1c(=O)n(Cc2ccccc2)c(=O)n13` (stereo not drawn) [Compound 40], the “Inhibitory effect (%) S. aureus ATCC 25923” value in the data set with S. aureus ATCC 25923 worked out at 4.1±1.1%. The “Inhibitory effect (%) E. coli ATCC 25922” value with E. coli ATCC 25922 is listed as -0.8±2.3%. The “Inhibitory effect (%) P. aeruginosa ATCC 27853” value in the data set on P. aeruginosa ATCC 27853 stood at 1.7±0.6%. Moreover, the “Cytotoxicity (%) Huh-7 cells” value in the data set with Huh-7 cells came to 2.3±2.2%. Moreover, in the data set with E. aerogenes ATCC 13048, the “Inhibitory effect (%) E. aerogenes ATCC 13048” value came to 15.1±3.4%. Moreover, the “Inhibitory effect (%) C. albicans ATCC 90028” value in the data set on C. albicans ATCC 90028 stood at 4.4±10.5%. For the same compound, in the data set on E. faecalis ATCC 29212, the “Inhibitory effect (%) E. faecalis ATCC 29212” value came to 66.0±1.5%.
`CC(=O)OCC12CCC3(C(C)C)C1=C1C(CC4C5(C)CCC(OC(C)=O)C(C)(C)C5CCC4(C)C1(C)CC2)n1c(=O)n(-c2ccccc2)c(=O)n13` (stereo not drawn) [Compound 41]: the “Inhibitory effect (%) S. aureus ATCC 25923” value with S. aureus ATCC 25923 was determined as 12.7±1.6%. Also, in the data set on E. coli ATCC 25922, the “Inhibitory effect (%) E. coli ATCC 25922” value is recorded as 7.1±1.0%. Besides, the “Inhibitory effect (%) P. aeruginosa ATCC 27853” value in the data set with P. aeruginosa ATCC 27853 is given as 1.3±0.4%. In addition, in the data set with Huh-7 cells, the “Cytotoxicity (%) Huh-7 cells” value is 1.3±4.4%. For the same compound, in the data set with E. aerogenes ATCC 13048, the “Inhibitory effect (%) E. aerogenes ATCC 13048” value is listed as 18.6±5.6%. Besides, the “Inhibitory effect (%) C. albicans ATCC 90028” value in the data set on C. albicans ATCC 90028 amounted to 15.0±14.3%. Moreover, the “Inhibitory effect (%) E. faecalis ATCC 29212” value in the data set with E. faecalis ATCC 29212 was 52.4±7.2%.
